Test results from US10194663B2, “Chemical stabilization of iodosulfuron-methyl sodium salt by hydroxystearates” (BAYER CROPSCIENCE AG, priority 2012, dated 2019).

Assay: Storage stability: degradation of IMS in OD formulations, determined by HPLC
Assay type: physicochemical
Conditions: for Degradation of IMS after 1 week at 54° C. / Degradation of IMS after 4 weeks at 40° C. / Degradation of IMS after 8 weeks at 40° C. / Degradation of IMS after 12 weeks at 35° C. / Degradation of IMS after 2 weeks at 54° C. / Degradation of IMS after 8 weeks at 40° C0: Emulsogen EL 400 10%
Text: The sodium salt of iodosulfuron-methyl (iodosulfuron-methyl-sodium, IMS) is finely dispersed by means of a rotor-stator mixer together with a customary emulsifier such as Emulsogen EL 400® (castor oil polyglycol ether from Clariant AG) in the solvents customary for OD formulations (oil dispersion formulations), such as rapeseed oil methyl ester or Solvesso 200 ND® (aromatics mixture from Exxon AG). Further formulation auxiliaries such as the thickener Bentone 38® (sheet silicate from Elementis AG) or the polymers Ligalub PEG 400 MO® (polyethylene glycol monooleate from Peter Greven GmbH), Ligalub 12 GE® (glyceryl dioleate from Peter Greven GmbH) or Ligalub 71 KE® (complex ester from Peter Greven GmbH) can, inter alia, also be added to the system. Furthermore, lithium hydroxystearate (lithium soap of a 12-hydroxystearic acid) was also additionally added for comparison purposes to each mixture.
Tables 1 to 9 show the compositions of the tested OD formulations (% data in % by weight).
The degradation of the IMS is determined here by means of HPLC.
The degradation is expressed here in tables 1 to 9 in—xx %. This means that after the relevant period xx % of the originally present IMS was already degraded.

[1] = Table 1 OD formulation: IMS 0.5%, Lithium hydroxystearate 0%, Bentone 38 1.2%, Rapeseed oil methyl ester 88.3%
[2] = Table 1 OD formulation: IMS 0.5%, Lithium hydroxystearate 1%, Bentone 38 1.2%, Rapeseed oil methyl ester 87.3%
[3] = Table 2 OD formulation: IMS 0.5%, Lithium hydroxystearate 0%, Solvesso 200 ND 89.5%
[4] = Table 2 OD formulation: IMS 0.5%, Lithium hydroxystearate 0.5%, Solvesso 200 ND 89%
[5] = Table 2 OD formulation: IMS 0.5%, Lithium hydroxystearate 1%, Solvesso 200 ND 88.5%
[6] = Table 2 OD formulation: IMS 0.5%, Lithium hydroxystearate 5%, Solvesso 200 ND 84.5%
[7] = Table 3 OD formulation: IMS 2%, Lithium hydroxystearate 0%, Solvesso 200 ND 88%
[8] = Table 3 OD formulation: IMS 2%, Lithium hydroxystearate 1%, Solvesso 200 ND 87%
[9] = Table 4 OD formulation: IMS 0.5%, Lithium hydroxystearate 0%, Ligalub PEG 400 MO 15%, Solvesso 200 ND 74.5%
[10] = Table 4 OD formulation: IMS 0.5%, Lithium hydroxystearate 1%, Ligalub PEG 400 MO 15%, Solvesso 200 ND 73.5%
[11] = Table 5 OD formulation: IMS 0.5%, Lithium hydroxystearate 0%, Ligalub PEG 400 MO 30%, Bentone 38 1.2%, Rapeseed oil methyl ester 58.3%
[12] = Table 5 OD formulation: IMS 0.5%, Lithium hydroxystearate 1%, Ligalub PEG 400 MO 30%, Bentone 38 1.2%, Rapeseed oil methyl ester 57.3%
[13] = Table 6 OD formulation: IMS 2%, Lithium hydroxystearate 0%, Ligalub PEG 400 MO 15%, Solvesso 200 ND 73%
[14] = Table 6 OD formulation: IMS 2%, Lithium hydroxystearate 1%, Ligalub PEG 400 MO 15%, Solvesso 200 ND 72%
[15] = Table 7 OD formulation: IMS 0.5%, Lithium hydroxystearate 0%, Ligalub 12 GE 30%, Bentone 38 1.2%, Rapeseed oil methyl ester 58.3%
[16] = Table 7 OD formulation: IMS 0.5%, Lithium hydroxystearate 1%, Ligalub 12 GE 30%, Bentone 38 1.2%, Rapeseed oil methyl ester 57.3%
[17] = Table 8 OD formulation: IMS 0.5%, Lithium hydroxystearate 0%, Ligalub 71 KE 15%, Solvesso 200 ND 74.5%
[18] = Table 8 OD formulation: IMS 0.5%, Lithium hydroxystearate 1%, Ligalub 71 KE 15%, Solvesso 200 ND 73.5%
[19] = Table 9 OD formulation: IMS 0.5%, Lithium hydroxystearate 0%, Ligalub 71 KE 30%, Bentone 38 1.2%, Rapeseed oil methyl ester 58.3%
[20] = Table 9 OD formulation: IMS 0.5%, Lithium hydroxystearate 1%, Ligalub 71 KE 30%, Bentone 38 1.2%, Rapeseed oil methyl ester 57.3%

**Q.** What does the source list for `COC(=O)c1ccc(I)cc1S(=O)(=O)[N-]C(=O)Nc1nc(C)nc(OC)n1.[Na+]` [IMS, iodosulfuron-methyl sodium salt]?
**A.** Degradation of IMS after 1 week at 54° C. [1]: −78.3%; Degradation of IMS after 4 weeks at 40° C. [1]: −46.4%; Degradation of IMS after 8 weeks at 40° C. [1]: −69.7%; Degradation of IMS after 12 weeks at 35° C. [1]: −57.8%; Degradation of IMS after 1 week at 54° C. [2]: −23.9%; Degradation of IMS after 4 weeks at 40° C. [2]: −5%; Degradation of IMS after 8 weeks at 40° C. [2]: −8.7%; Degradation of IMS after 12 weeks at 35° C. [2]: −6.3%; Degradation of IMS after 2 weeks at 54° C. [3]: −87.9%; Degradation of IMS after 4 weeks at 40° C. [3]: −29.9%; Degradation of IMS after 2 weeks at 54° C. [4]: −32.2%; Degradation of IMS after 4 weeks at 40° C. [4]: −7.4%; Degradation of IMS after 2 weeks at 54° C. [5]: −28%; Degradation of IMS after 4 weeks at 40° C. [5]: −3.4%; Degradation of IMS after 2 weeks at 54° C. [6]: −14.7%; Degradation of IMS after 4 weeks at 40° C. [6]: −3.6%; Degradation of IMS after 2 weeks at 54° C. [7]: −34.6%; Degradation of IMS after 4 weeks at 40° C. [7]: −5.2%; Degradation of IMS after 2 weeks at 54° C. [8]: −13.1%; Degradation of IMS after 4 weeks at 40° C. [8]: −0.2%; Degradation of IMS after 2 weeks at 54° C. [9]: −93.2%; Degradation of IMS after 4 weeks at 40° C. [9]: −34.9%; Degradation of IMS after 2 weeks at 54° C. [10]: −37.8%; Degradation of IMS after 4 weeks at 40° C. [10]: −7.2%; Degradation of IMS after 2 weeks at 54° C. [11]: −87.4%; Degradation of IMS after 4 weeks at 40° C. [11]: −51.6%; Degradation of IMS after 8 weeks at 40° C0 [11]: −77.2%; Degradation of IMS after 12 weeks at 35° C. [11]: −66.8%; Degradation of IMS after 2 weeks at 54° C. [12]: −45.8%; Degradation of IMS after 4 weeks at 40° C. [12]: −14.8%; Degradation of IMS after 8 weeks at 40° C0 [12]: −21%; Degradation of IMS after 12 weeks at 35° C. [12]: −13.6%; Degradation of IMS after 2 weeks at 54° C. [13]: −81.8%; Degradation of IMS after 4 weeks at 40° C. [13]: −32.9%; Degradation of IMS after 2 weeks at 54° C. [14]: −32.7%; Degradation of IMS after 4 weeks at 40° C. [14]: −3.2%; Degradation of IMS after 1 week at 54° C. [15]: −42.4%; Degradation of IMS after 4 weeks at 40° C. [15]: −76.6%; Degradation of IMS after 8 weeks at 40° C. [15]: −65.9%; Degradation of IMS after 12 weeks at 35° C. [15]: −55.7%; Degradation of IMS after 1 week at 54° C. [16]: −11.8%; Degradation of IMS after 4 weeks at 40° C. [16]: −3.6%; Degradation of IMS after 8 weeks at 40° C. [16]: −4.7%; Degradation of IMS after 12 weeks at 35° C. [16]: −5.3%; Degradation of IMS after 2 weeks at 54° C. [17]: −66.6%; Degradation of IMS after 4 weeks at 40° C. [17]: −65%; Degradation of IMS after 2 weeks at 54° C. [18]: −9.86%; Degradation of IMS after 4 weeks at 40° C. [18]: −5.6%; Degradation of IMS after 1 week at 54° C. [19]: −75.8%; Degradation of IMS after 4 weeks at 40° C. [19]: −39.6%; Degradation of IMS after 8 weeks at 40° C. [19]: −63.6%; Degradation of IMS after 12 weeks at 35° C. [19]: −54.6%; Degradation of IMS after 1 week at 54° C. [20]: −11.4%; Degradation of IMS after 4 weeks at 40° C. [20]: −2.3%; Degradation of IMS after 8 weeks at 40° C. [20]: −3%; Degradation of IMS after 12 weeks at 35° C. [20]: −3%

**Q.** Which “stabilizing effect on the sodium salt of iodosulfuron” value (hydroxystearate as thickener in oil-based liquid formulations of iodosulfuron-methyl sodium salt) does the source give for `CCCCCCC(O)CCCCCCCCCCC(=O)[O-].[Li+]` (stereo not drawn) [lithium hydroxystearate] here?
**A.** particularly significantly stabilizing effect
